# Assay results as given in US20250090626A1, “NEW PEPTIDE AND USES THEREOF” (Neo Cremar Co., Ltd., priority 2021, published 2025).
# Tests used:
# Assay type in all cases: cell-based, mouse
# C2C12 cells [1] = assay: C2C12 cell proliferation (MTT method)
# Experimental: C2C12 cells, a mouse myoblast line, were cultured in Dulbecco's Modified Eagle's Medium (DMEM)+10% fetal bovine serum (FBS)+1% penicillin/streptomycin (P/S). To validate the effect of MIF peptide, C2C12 cells (2×10^3 cells/ml) were placed in a 12 well cell culture dish and attached for 24 hours, and MIF peptide (1000 nM) was treated for 1 day to observe cell proliferation by MTT method. The medium was replaced every 2 days, and the cells were cultured at 37° C.
# To validate cell proliferation, the culture medium of the cells was removed, the cells were washed with DMEM, 500 μl of MTT reagent (0.5 mg/ml) dissolved in phosphate buffered saline (PBS) was added to each well, and the cells were left at 37° C. for 1 hour. The reaction solution was removed, and 1000 μl of DMSO was added to each well. Purple formazan crystals were completely dissolved in DMSO, and the absorbance was measured at 540 nm.
# C2C12 cells [2] = assay: Myodifferentiation, Giemsa staining, root canal formation and fusion index
# Experimental: When C2C12 cells were 70% grown, media were replaced with myodifferentiation medium added with MSTN protein (1 ng), Ac-MIF1 (1000 nM), and Ac-MIF1 (1000 nM)+MSTN protein (1 ng) from proliferation medium, followed by culture for 3 days.
# When the cells grew more than 70% for differentiation of myoblasts into myocytes, they were cultured for 3 days by replacing with a differentiation medium (DMEM+2% FBS+1% P/S). The medium was replaced once daily, and the cells were cultured at 37° C.
# The cell medium was removed, and the cells were washed with PBS. After washing, a methanol:PBS reagent in a 1:1 volume ratio was treated, followed by fixation for 2 minutes. Additionally, after a methanol:PBS reagent in a 2:1 volume ratio was added, fixation was followed for additional 2 minutes. After 2 minutes, 0.04% Giemsa reagent was added, and then the cells were left for 30 minutes, washed with PBS after 30 minutes, and observed under a microscope, with 3 photographs taken for each cell (300×). In the photographs taken, the number of fused nuclei in the root canal cells was counted, the number of nuclei of total cells was counted, and the number of fused nuclei was divided by the number of nuclei of the total cells to obtain the % value.
# C2C12 cells [3] = assay: Scratch experiment, degree of cell recovery; conditions: C2C12, 1000 nM peptide, 1 day in proliferation medium
# Experimental: When the C2C12 cells were 100% grown, cells were scratches on the surface, treated with 1000 nM MIF1 or Ac-MIF1 peptides, and cultured for 1 day, followed by observation for a degree of cell recovery.
# C2C12 cells [4] = assay: Protein expression of myodifferentiation and sarcopenia factors (Western blot, immunocytochemistry); conditions: C2C12 myodifferentiation, peptide-treated vs untreated
# Experimental: The medium of cultured C2C12 cells was removed and washed once with PBS. The washed cells were treated with 4% formaldehyde (Sigma), fixed for 15 minutes, then washed using PBS, added with 0.2% trypton X-100 (Sigma), and left for 5 minutes. After washing again using PBS, adding 1% normal goat serum, and leaving for 30 minutes, the primary antibody (MYOD, myogenin (MYOG):myosin light chain (MYL2); 1:50) was added to carry out a reaction at 4° C. for 14 hours. The antibodies were removed, washing was performed 3 times with PBS for 10 minutes, and then the cells were left with secondary antibody (Alexa Fluor 488 goat anti-Mouse & rabbit SFX kit t) for 1 hour. After 1 hour, the antibodies were removed, washing was performed with PBS for 10 minutes, the nuclei were stained with 4′,6-diamidino-2-phenylindol (DAPI), and the expression of the proteins was observed using fluorescence microscopy.
# (1) The medium of cultured C2C12 cells was removed, followed by washing with PBS. After adding LIPA buffer and protease inhibitor to the washed cells, the proteins included in the supernatant were collected after centrifugation for 10 minutes at 12000 rpm. 40 μg of the extracted proteins were subjected to electrophoresis in 8 to 10% acrylamide gel and then transferred to a polyvinylidene fluoride (PVDF) membrane (Milipore). These were blocked with 3% skim milk or bovine serum albumin (BSA) at room temperature for 1 hour. Afterwards, primary antibody diluted in 1% skim milk or BSA (Pax7; 1:500, MYOD; 1:500, MYOG; 1:400, MYL2; 1:1000, MYH; 1:500, MSTN; 1:1000, β-actin; 1:1000, MuRF1; 1:400, and Atrogin; 1:1:400) was added and reacted at 4° C. for over 16 hours. After 16 hours, cells were washed three times with TBST (Tris-buffered saline with Tween 20) and reacted with secondary antibody with horseradish peroxidase (HRP) conjugated at room temperature for 1 hour. It was washed three times with TBST and developed after adding Super Signal West Pico Chemiluminescent Substrate.
# C2C12 cells [5] = assay: mRNA expression of myodifferentiation and sarcopenia factors (real-time PCR); conditions: C2C12 myodifferentiation, peptide-treated vs untreated
# Experimental: After adding 1 ml of TRIzol™ reagent, the cells were crushed using a sonicator. After centrifugation of the crushed sample (12,000 rpm, 10 min, 4° C.), the supernatant was transferred to a new tube, added with 200 μl of chloroform, and left at room temperature for 10 minutes. After 10 minutes, centrifugation (12,000 rpm, 10 min, 4° C.) was performed, yielded a transparent supernatant. Next, 500 μl of isopropanol was added, the mixture was left for 10 minutes, and centrifugation was performed to obtain RNA pellets. After washing by adding 70% ethanol (distilled water treated with ethanol+diethylpyrocarbonate (hereinafter referred to as DEPC)) to the RNA pellets, complete removal and drying were followed. The dried transparent RNA was added with DEPC-treated distilled water and then stored at −80° C. Total RNA volume was measured by nanodrop, and the 18s and 28s bands were detected in 1.2% agarose gel. cDNA was synthesized with 2 μg of total RNA, random hexamer primers, and reverse transcriptase (25° C.: 10 min, 37° C.: 120 min, 85° C.: 5 min).
# Real-time PCR (RT-PCR) was performed for detecting gene expression. For observation of real-time gene expression, gene expression was analyzed using the Power SYBR Green PCR Master Mix, which includes fluorescent materials of SYBR green (7500 Real-time PCR system). The PCR primer was designed with Primer 3 software (http://frodo.wi.mit.edu) according to the nucleotide sequence secured from NCBI GenBank. PCR was performed 40 times at 95° C. for 10 minutes, again at 95° C. for 33 seconds, at gene primer temperature (tm) for 33 seconds, and at 72° C. for 33 seconds. Gene expression values were analyzed through the analysis of c(t) values obtained through real-time PCR analysis (fold change 2-^ΔΔCt formula). Setting the gene expression value of the untreated cells to 1, the gene expression value of the treated cells was calculated. In the analysis of gene c(t) values, normalization was conducted with the glyceraldehyde-3-phosphate dehydrogenase (GAPDH).
Substance,"proliferation of cells compared to untreated cells (C2C12 cells [1]; C2C12, MSTN protein in proliferation medium, FIG. 3)","differentiation of cells compared to untreated cells (C2C12 cells [2]; C2C12, MSTN protein in differentiation medium, FIG. 3)","root canal formation compared to untreated cells (C2C12 cells [2]; C2C12, differentiation medium, 3 days)","scratch recovery degree, increase compared to untreated cells (C2C12 cells [3]) [%]","cell proliferation, increase compared to cells without peptide treatment (C2C12 cells [1]; C2C12, peptide 1000 nM, 1 day, MTT, FIG. 4) [%]",MSTN protein expression (C2C12 cells [4]),MYH protein expression (C2C12 cells [4]),MYL2 protein expression (C2C12 cells [4]),MYOD protein expression (C2C12 cells [4]),MYOG protein expression (C2C12 cells [4]),MuRF1 protein expression (C2C12 cells [4]),"fusion index, increase compared to untreated cells (C2C12 cells [2]; C2C12, differentiation medium including peptide, 3 days) [%]",Atrogin1 mRNA expression (C2C12 cells [5]),MSTN mRNA expression (C2C12 cells [5]),MYH mRNA expression (C2C12 cells [5])
MSTN protein: myostatin protein that inhibits the proliferation and differentiation of myoblasts [reference compound],reduced,reduced,reduced,–,–,–,–,–,–,–,–,–,–,–,–
VDFEAFWDWG [MIF1],–,–,–,22,11,increased,increased,increased,increased,increased,decreased,4,decreased,decreased,increased
